Columns and labels:
[1] = tested on: rats of the Sprague Dawley breed; test: Acute dermal toxicity; assay type: in vivo
Protocol: (§1) This study was carried out on white rabbits of the New Zealand breed and on rats of the Sprague Dawley breed.
(§2) The rats were subjected on the one hand to a study for determination of the acute dermal toxicity and on the other hand to a study for determination of the acute oral toxicity.
(§3) observing the OECD Guidelines no. 404 and 405 of 24 Feb. 1987 to the extent that they are studies carried out on white rabbits, and OECD Guidelines no. 401 and 402 (1987) as well as EEC Directive B-I 92/69 (1992) to the extent that they are studies carried out on Sprague Dawley rats.

thrombin = test: Specific antithrombin test using chromogenic substrates; assay type: biochemical
Excerpt: (§4) The effect in the case of the thrombin time can be considered as being due to an inhibition of thrombin dependent on heparin cofactor II. On the basis of on the one hand the lower specific activity and on the other hand the profile dependent on the concentration and also on the other hand other investigations relating to the action mechanism, it is possible to consider that in the case of the laminarin sulphate PS3, the risk of bleeding is considerably lower than in the case of heparin.

[2] = tested on: white rabbits of the New Zealand breed; test: Primary skin irritation test; assay type: in vivo
Protocol: as §1
(§5) The white rabbits were subjected on the one hand to the ocular irritation test and on the other hand to the primary skin irritation test.
as §3

[3] = tested on: rats of the Sprague Dawley breed; test: Acute oral toxicity; assay type: in vivo
Protocol: as §1, §2, §3

factor Xa [4] = test: HEPTEST coagulation test; assay type: biochemical; conditions: in contrast to heparin
Protocol: For this, the anticoagulant activity of the laminarin sulphate PS3 obtained in Example 1 was determined as a function of its concentration in comparison with that of heparin in the conventional coagulation, APTT or “activated partial thromboplastin time” tests, the prothombin time test, the so-called “HEPTEST” test and the thrombin time test. The APTT reflects an interaction with the intrinsic coagulation system, while the prothrombin time reflects an interaction with the extrinsic coagulation; the so-called “HEPTEST” test is the conventional test for measurement of the inhibitory activity of heparin with respect to factor Xa, and the thrombin time corresponds to the last stage of coagulation, that is to say the formation of fibrins induced by thrombin. […] The specific activity (IU/mg) in the APTT represents 30% of the heparin activity, and in the case of the thrombin time 60%. To prevent coagulation totally, it was necessary to apply a concentration 4 times higher in the case of the APTT and a concentration 20 times higher in the case of the thrombin time.

[5] = tested on: intrinsic coagulation system; test: APTT (activated partial thromboplastin time) test; assay type: biochemical; conditions: relative to heparin
Protocol: (§6) For this, the anticoagulant activity of the laminarin sulphate PS3 obtained in Example 1 was determined as a function of its concentration in comparison with that of heparin in the conventional coagulation, APTT or “activated partial thromboplastin time” tests, the prothombin time test, the so-called “HEPTEST” test and the thrombin time test. The APTT reflects an interaction with the intrinsic coagulation system, while the prothrombin time reflects an interaction with the extrinsic coagulation; the so-called “HEPTEST” test is the conventional test for measurement of the inhibitory activity of heparin with respect to factor Xa, and the thrombin time corresponds to the last stage of coagulation, that is to say the formation of fibrins induced by thrombin.

[6] = tested on: white rabbits of the New Zealand breed; test: Ocular irritation test; assay type: in vivo
Protocol: as §1, §5, §3

HSV-1 = test: Action on the viral adsorption (treatments A, B, C); assay type: cell-based, herpes simplex virus 1; conditions: treatment C (present during and after infection), 72 hours
Protocol: (§7) To determine whether PS3 has an effect on the viral adsorption, the procedure was as follows.
(§8) Vero cells were seeded at a cell density of 3.5·10^4 cells/well of a 96-well microtitre plate in 100 μl of MEM medium containing 8% FCS 24 hours before the test. The viral suspensions of HSV-1, HSV-1R, HSV-2 and HSV-2R, defined by an MOI of 0.01 ID50/cell for a cell concentration of 350,000 cells/ml, were tested.
(§9) On the day of the test, the cells were subjected to three different treatments designated A, B and C.
(§10) According to treatment A, cells treated with 50 μl of PS3 or comparison product (acyclovir) of a given concentration were infected with 50 μl of one of the viral suspensions identified above for one hour at 4° C.
(§11) The infected cells were then washed with 100 μl of saline buffer in order to remove the PS3 or the reference product as well as the viral particles which had not been adsorbed by the cells.
(§12) After having filled each well with sufficient MEM medium containing 8% FCS to arrive at a volume of 200 μl, the cells were then placed in an oven at 37° C. for 72 hours. […]
(§13) For these 3 treatments, the inhibitory effect of PS3 and of the reference product (expressed in EC50) on the adsorption of the four abovementioned viral strains after 72 hours was evaluated by measurement of the EC50 values in accordance with the method described in Example 3.

HSV-1R = test: as above; assay type: cell-based, herpes simplex virus 1; conditions: treatment C (present during and after infection), 72 hours
Protocol: as §7, §8, §9, §10, §11, §12, §13

[7] = tested on: formation of fibrins induced by thrombin; test: Thrombin time test; assay type: biochemical; conditions: relative to heparin
Protocol: as §6

extrinsic coagulation = test: Prothrombin time test; assay type: biochemical
Protocol: as §6

factor Xa [8] = test: Specific anti-factor Xa test using chromogenic substrates; assay type: biochemical
Excerpt: as §4

Substance: sulphated laminarin [PS3]
- dermal 50% lethal dose [1]: greater than 2 g/kg of body weight
- antithrombin activity (thrombin): nor an antithrombin activity
- Primary skin irritation [2]: non-irritating action
- acute toxicity by the oral route [3]: greater than 2 g/kg of body weight
- Activity in the HEPTEST test compared with heparin (factor Xa [4]): more than 20 times weaker
- Concentration needed to prevent coagulation totally, APTT [5]: 4 times higher
- Specific activity (IU/mg) in the APTT as share of the heparin activity [5]: 30%
- Ocular irritation [6]: slightly irritating action
- EC50 (HSV-1): 3.84 µg/mL
- EC50 (HSV-1R): 5.54 µg/mL
- Concentration needed to prevent coagulation totally, thrombin time [7]: 20 times higher
- Specific activity (IU/mg) in the thrombin time as share of the heparin activity [7]: 60%
- Anticoagulant effect on the prothrombin time (extrinsic coagulation): no pronounced anticoagulant effect
- anti-factor Xa activity dependent on the antithrombin (factor Xa [8]): neither a significant anti-factor Xa activity dependent on the antithrombin

Reference: patent US8288363B2, “Medicaments for anti-herpes virus treatments” (ASE & BIO, priority 2006, dated 2012)
